The values below are quoted from earlier work in patent US20160089381A1, “STABILITY OF PROGESTOGEN FORMULATIONS” (Novo Nordisk HealthCare AG, priority 2003, published 2016).

The subject of this series is endometrium. The following applies: dose equivalent to 1 mg NETA.

For `CC(=O)O[C@]1(C(C)=O)CC[C@H]2[C@@H]3C=C(Cl)C4=CC(=O)[C@@H]5C[C@@H]5[C@]4(C)[C@H]3CC[C@@]21C` [cyproterone acetate], the Endometrium transformation dosage is given as 1 mg.
As for `CC(=O)O[C@]1(C(C)=O)CC[C@H]2[C@@H]3C[C@H](C)C4=CC(=O)CC[C@]4(C)[C@H]3CC[C@@]21C` [medroxyprogestogen acetate], the Endometrium transformation dosage was 5 mg.
